Literature values in patent publication US11166956B2, “Combinations of PDE1 inhibitors and NEP inhibitors” (INTRA-CELLULAR THERAPIES, INC., priority 2014, dated 2021).

What was measured:
NEP and ACE = conditions: clinical studies
NEP = NEP (Homo sapiens, UniProt P08473)
Sequence of NEP (P08473 whole entry): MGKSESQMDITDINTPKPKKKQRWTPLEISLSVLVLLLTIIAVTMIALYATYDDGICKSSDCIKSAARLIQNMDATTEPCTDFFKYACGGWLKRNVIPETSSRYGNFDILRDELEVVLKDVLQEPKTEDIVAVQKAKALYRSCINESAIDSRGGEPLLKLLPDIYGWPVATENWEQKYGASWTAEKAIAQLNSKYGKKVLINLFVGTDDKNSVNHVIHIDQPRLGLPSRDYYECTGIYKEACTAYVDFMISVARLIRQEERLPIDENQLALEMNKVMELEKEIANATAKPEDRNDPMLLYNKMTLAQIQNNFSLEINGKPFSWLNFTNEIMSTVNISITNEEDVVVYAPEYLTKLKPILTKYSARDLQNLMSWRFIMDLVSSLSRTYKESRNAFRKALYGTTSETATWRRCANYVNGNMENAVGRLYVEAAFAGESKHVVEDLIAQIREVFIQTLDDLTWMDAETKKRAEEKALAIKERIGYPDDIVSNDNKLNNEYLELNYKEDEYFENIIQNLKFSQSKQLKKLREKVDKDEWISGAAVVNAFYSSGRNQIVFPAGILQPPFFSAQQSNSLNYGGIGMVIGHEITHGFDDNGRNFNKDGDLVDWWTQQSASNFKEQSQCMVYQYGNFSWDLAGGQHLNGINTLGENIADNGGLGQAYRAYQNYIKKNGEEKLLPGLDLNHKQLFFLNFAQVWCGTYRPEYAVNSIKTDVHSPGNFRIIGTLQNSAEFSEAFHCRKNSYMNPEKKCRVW

In the case of `O=C(N[C@H]1CCS[C@H]2CCC[C@@H](C(=O)O)N2C1=O)[C@@H](S)Cc1ccccc1` [omapatrilat], the incidence of angioedema (NEP and ACE) is given as “severe incidence of angioedema”.
In the case of `COCCOC[C@H](CC1(C(=O)N[C@H]2CC[C@@H](C(=O)O)CC2)CCCC1)C(=O)Oc1ccc2c(c1)CCC2` [Candoxatril], the blood-pressure lowering effect (NEP; in vivo) is given as “does not produce a stable blood-pressure lowering effect”, the “plasma ANP and cGMP levels” value (NEP; in vivo) is given as “dose-dependent increase” and the levels of endothelin (NEP; patients with heart failure) is given as “increase levels of endothelin significantly”.
For `COc1cc2c(c(O)c1OC)C(=O)C[C@@H](c1cc(O)ccc1O)O2` [dioclein], the vasodilation (PDE1) is listed as “induce PKG-dependent vasodilation”.
